Results published in patent US20090018019A1, “INCREASING PATHOGEN DEFENCE IN PLANTS” (priority 2005, published 2009).

How the values were obtained:
Assay in all cases: DNA chip expression analysis of barley leaves after soil treatment
Type in all cases: in vivo
Details in all cases: 10 mg per plant to soil
[1] = test system: Contig12046_at PATHOGENESIS RELATED PROTEIN-1
Method: (§1) Barley seeds (of the Baroness variety) were sown in pots containing soil about 2 cm deep (1250 g of sandy loam/per pot; the soil moisture content was adjusted to 70% of the maximum water-holding capacity) and cultivated in a climatized chamber under specified light, moisture and temperature conditions (15 h white light, 70% atmospheric humidity, 23-19° C. day/night).
(§2) 14 days after the emergence of the barley plants 10 mg of imidacloprid per plant, dissolved in 100 ml water, were applied by means of a pipette to the soil around the base of the shoot. The same volume of water without any active compound was applied to the control pots. After the soil treatment the plants were no longer watered. At various times after application (0.25; 1; 6; 8; 11; 13; 15; 16 and 17 days) the leaves were harvested, quick-frozen in liquid nitrogen and stored at −80° C. until further treatment.
(§3) The labelled RNA probes for the DNA chip hybridization were produced according to the protocols (Expression Analysis, Technical Manual) of the Affymetrix company (Affymetrix Inc., 3380 Central Expressway, Santa Clara, Calif., USA). Whole RNA was first of all isolated from in each case 500 mg of the harvested leaves. 10 μg portions of whole RNA were used for the first and second strand cDNA synthesis. The cDNA was amplified with T7 polymerase and simultaneously labelled with biotin-UTP. 20 μg portions of this biotinylated cDNA were used for the hybridization of the barley genome array (Barleyl Gene Chip, Item no: 511012) from Affymetrix. This DNA microarray contains DNA sequences of 22840 genes composed of a total of 400000 EST (Expressed Sequence Tag) sequences. Then the DNA microarrays were washed in the Affymetrix Fluidics Station, stained with streptavidin/phycoerythrin (Molecular Probes, P/N S-866) and scanned with the Affymetrix Gene Chip Scanner 3000. The fluorescence data obtained were analyzed with the Microarray Suite 5 software from Affymetrix and the Expressionist Pro software from the GeneData company. After a quality check, all of the DNA chip analyses were stored in a database. Since the Affymetrix Gene Chip System is based on measuring the absolute expression values of the genes contained in the chip, the expression values of the biological replicates of treated and non-treated plants were averaged after normalization (median calculation). With the aid of the statistical ANOVA method, those genes were identified whose expression was increased in the plants treated with imidacloprid but remained relatively constant in the untreated controls. The assembly of gene groups from specific metabolic pathways, signal transduction chains or functions was carried out by a keyword search through the gene annotations supplied by Affymetrix and by linking the genes to their corresponding Gene Ontology Annotations (Gene Ontology Consortium).

[2] = test system: Contig2214_s_at PATHOGENESIS RELATED PROTEIN (HV-1A)
Method: as §1, §2, §3

[3] = test system: Contig2212_s_at PATHOGENESIS-RELATED PROTEIN PRB1-3
Method: as §1, §2, §3

[4] = test system: Contig2211_at PATHOGENESIS-RELATED PROTEIN PRECURSOR
Method: as §1, §2, §3

[5] = test system: Contig639_at PATHOGENESIS-RELATED PROTEIN PRECURSOR
Method: as §1, §2, §3

O=[N+]([O-])/N=C1\NCCN1Cc1ccc(Cl)nc1 [imidacloprid]
Induction factor = Expression (treated)/Expression (untreated) ([1]; 0.25 d): 0.9 | Median of the raw expression data, treated ([1]; 0.25 days): 76.89 | Induction factor = Expression (treated)/Expression (untreated) ([1]; 1 d): 0.8 | Median of the raw expression data, treated ([1]; 1 day): 46.22 | Induction factor = Expression (treated)/Expression (untreated) ([1]; 6 d): 6.5 | Median of the raw expression data, treated ([1]; 6 days): 786.00 | Induction factor = Expression (treated)/Expression (untreated) ([1]; 8 d): 7.2 | Median of the raw expression data, treated ([1]; 8 days): 1336.13 | Induction factor = Expression (treated)/Expression (untreated) ([1]; 11 d): 7.8 | Median of the raw expression data, treated ([1]; 11 days): 792.96 | Induction factor = Expression (treated)/Expression (untreated) ([1]; 13 d): 2.7 | Median of the raw expression data, treated ([1]; 13 days): 140.26 | Induction factor = Expression (treated)/Expression (untreated) ([1]; 15 d): 2.5 | Median of the raw expression data, treated ([1]; 15 days): 150.31 | Induction factor = Expression (treated)/Expression (untreated) ([1]; 16 d): 2.9 | Median of the raw expression data, treated ([1]; 16 days): 622.77 | Induction factor = Expression (treated)/Expression (untreated) ([1]; 17 d): 0.9 | Median of the raw expression data, treated ([1]; 17 days): 220.80 | Induction factor = Expression (treated)/Expression (untreated) ([2]; 0.25 d): 0.9 | Median of the raw expression data, treated ([2]; 0.25 days): 86.29 | Induction factor = Expression (treated)/Expression (untreated) ([2]; 1 d): 0.5 | Median of the raw expression data, treated ([2]; 1 day): 44.68 | Induction factor = Expression (treated)/Expression (untreated) ([2]; 6 d): 9.8 | Median of the raw expression data, treated ([2]; 6 days): 3322.93 | Induction factor = Expression (treated)/Expression (untreated) ([2]; 8 d): 11.1 | Median of the raw expression data, treated ([2]; 8 days): 4807.28 | Induction factor = Expression (treated)/Expression (untreated) ([2]; 11 d): 9.3 | Median of the raw expression data, treated ([2]; 11 days): 4463.75 | Induction factor = Expression (treated)/Expression (untreated) ([2]; 13 d): 5.1 | Median of the raw expression data, treated ([2]; 13 days): 636.20 | Induction factor = Expression (treated)/Expression (untreated) ([2]; 15 d): 3.0 | Median of the raw expression data, treated ([2]; 15 days): 808.24 | Induction factor = Expression (treated)/Expression (untreated) ([2]; 16 d): 2.4 | Median of the raw expression data, treated ([2]; 16 days): 1241.52 | Induction factor = Expression (treated)/Expression (untreated) ([2]; 17 d): 0.6 | Median of the raw expression data, treated ([2]; 17 days): 472.04 | Induction factor = Expression (treated)/Expression (untreated) ([3]; 0.25 d): 0.9 | Median of the raw expression data, treated ([3]; 0.25 days): 153.25 | Induction factor = Expression (treated)/Expression (untreated) ([3]; 1 d): 0.9 | Median of the raw expression data, treated ([3]; 1 day): 135.85 | Induction factor = Expression (treated)/Expression (untreated) ([3]; 6 d): 9.6 | Median of the raw expression data, treated ([3]; 6 days): 3508.08 | Induction factor = Expression (treated)/Expression (untreated) ([3]; 8 d): 10.3 | Median of the raw expression data, treated ([3]; 8 days): 3936.08 | Induction factor = Expression (treated)/Expression (untreated) ([3]; 11 d): 9.0 | Median of the raw expression data, treated ([3]; 11 days): 3866.40 | Induction factor = Expression (treated)/Expression (untreated) ([3]; 13 d): 3.7 | Median of the raw expression data, treated ([3]; 13 days): 470.29 | Induction factor = Expression (treated)/Expression (untreated) ([3]; 15 d): 2.3 | Median of the raw expression data, treated ([3]; 15 days): 378.35 | Induction factor = Expression (treated)/Expression (untreated) ([3]; 16 d): 2.4 | Median of the raw expression data, treated ([3]; 16 days): 756.91 | Induction factor = Expression (treated)/Expression (untreated) ([3]; 17 d): 0.7 | Median of the raw expression data, treated ([3]; 17 days): 376.36 | Induction factor = Expression (treated)/Expression (untreated) ([4]; 0.25 d): 1.0 | Median of the raw expression data, treated ([4]; 0.25 days): 223.31 | Induction factor = Expression (treated)/Expression (untreated) ([4]; 1 d): 1.0 | Median of the raw expression data, treated ([4]; 1 day): 206.49 | Induction factor = Expression (treated)/Expression (untreated) ([4]; 6 d): 3.1 | Median of the raw expression data, treated ([4]; 6 days): 824.50 | Induction factor = Expression (treated)/Expression (untreated) ([4]; 8 d): 3.7 | Median of the raw expression data, treated ([4]; 8 days): 928.65 | Induction factor = Expression (treated)/Expression (untreated) ([4]; 11 d): 3.0 | Median of the raw expression data, treated ([4]; 11 days): 868.02 | Induction factor = Expression (treated)/Expression (untreated) ([4]; 13 d): 1.8 | Median of the raw expression data, treated ([4]; 13 days): 296.99 | Induction factor = Expression (treated)/Expression (untreated) ([4]; 15 d): 1.1 | Median of the raw expression data, treated ([4]; 15 days): 252.25 | Induction factor = Expression (treated)/Expression (untreated) ([4]; 16 d): 1.5 | Median of the raw expression data, treated ([4]; 16 days): 340.64 | Induction factor = Expression (treated)/Expression (untreated) ([4]; 17 d): 0.8 | Median of the raw expression data, treated ([4]; 17 days): 219.24 | Induction factor = Expression (treated)/Expression (untreated) ([5]; 0.25 d): 0.7 | Median of the raw expression data, treated ([5]; 0.25 days): 157.66 | Induction factor = Expression (treated)/Expression (untreated) ([5]; 1 d): 0.3 | Median of the raw expression data, treated ([5]; 1 day): 38.68 | Induction factor = Expression (treated)/Expression (untreated) ([5]; 6 d): 8.6 | Median of the raw expression data, treated ([5]; 6 days): 2482.57 | Induction factor = Expression (treated)/Expression (untreated) ([5]; 8 d): 14.7 | Median of the raw expression data, treated ([5]; 8 days): 3944.01 | Induction factor = Expression (treated)/Expression (untreated) ([5]; 11 d): 8.9 | Median of the raw expression data, treated ([5]; 11 days): 4273.57 | Induction factor = Expression (treated)/Expression (untreated) ([5]; 13 d): 11.3 | Median of the raw expression data, treated ([5]; 13 days): 1496.21 | Induction factor = Expression (treated)/Expression (untreated) ([5]; 15 d): 2.9 | Median of the raw expression data, treated ([5]; 15 days): 920.86 | Induction factor = Expression (treated)/Expression (untreated) ([5]; 16 d): 4.4 | Median of the raw expression data, treated ([5]; 16 days): 1300.36 | Induction factor = Expression (treated)/Expression (untreated) ([5]; 17 d): 2.9 | Median of the raw expression data, treated ([5]; 17 days): 1196.37
